Entries after “also recorded” stand apart in the source; their conditions may differ.
Tests used:
[1] = tested on: SUM149 inflammatory breast tumor cells; assay: Anchorage-independent growth in soft agar, SUM149; format: cell-based; settings: 28 days
Method: (§1) Assay for anchorage-independent growth in soft agar Cells (5×10^5) were suspended in 1× DMEM/HEPES, 10% heat-inactivated FBS, 0.13% bicarbonate, and 0.33% BBL agar. The cells were plated on 1% base agar plates (60 mm) containing 1× DMEM/HEPES, 10% heat-inactivated FBS, and 1% BBL agar. Fresh serum-containing medium was fed to the cells on 3-day intervals. The dishes were then incubated at 37° C. with 5% CO2 for 28 days. The colonies that grew in soft agar were photographed and counted. Data are expressed as the number of colonies formed per plate±S.E.M. and three plates were counted per cell line.

[2] = tested on: MDA7, MDA-MB-231, SUM149, and SUM190; assay: Anchorage-independent growth in soft agar, four breast tumor models; format: cell-based; settings: MDA7, MDA-MB-231, SUM149, SUM190; 28 days
Method: as §1

[3] = tested on: SUM149 and MDA-MB-231 cells; assay: In vitro invasion of an artificial basement membrane; format: cell-based, human; settings: 5 μM in DMSO; 72 hours
Method: Effect of prodrugs on in vitro invasion of an artificial basement membrane by human breast cancer cells. SUM149 and MDA-MB-231 cells were trypsinized, resuspended in serum-supplemented medium, and counted. Cells were then washed 3 times with serum-free medium. Plates (6-well) compatible with transwell inserts with 8 μm pore-size polycarbonate filters (Fisher Scientific) were coated with Matrigel in cold serum-free DMEM/F12 at a final concentration of 0.7 mg/mL and held at room temperature for 40 minutes. Cells (in 500 μL serum-free medium) were added into the transwell inserts and incubated for 72 hours in the absence or presence 5 μM prodrug in DMSO (1% by volume). For a control, 10% FBS was used to evaluate the baseline extent of invasion of the different cell lines. After incubation, noninvading cells on the upper surface of the filter were removed with cotton swabs. Cells that had passed through the pores onto the lower side of the filter were fixed, stained with Hema-3 stain (Fisher Scientific), and quantified. The experiments were performed in triplicate and were repeated twice.

STAT3 [4] = biological target: T1, STAT3 (Homo sapiens, UniProt P40763); assay: Inhibition of STAT3 phosphorylation in BT20 breast tumor cells (western blot); format: cell-based; design: endogenous in cells; host or cells: BT20 breast tumor cells; settings: BT20 time course
T1 sequence (P40763 whole entry): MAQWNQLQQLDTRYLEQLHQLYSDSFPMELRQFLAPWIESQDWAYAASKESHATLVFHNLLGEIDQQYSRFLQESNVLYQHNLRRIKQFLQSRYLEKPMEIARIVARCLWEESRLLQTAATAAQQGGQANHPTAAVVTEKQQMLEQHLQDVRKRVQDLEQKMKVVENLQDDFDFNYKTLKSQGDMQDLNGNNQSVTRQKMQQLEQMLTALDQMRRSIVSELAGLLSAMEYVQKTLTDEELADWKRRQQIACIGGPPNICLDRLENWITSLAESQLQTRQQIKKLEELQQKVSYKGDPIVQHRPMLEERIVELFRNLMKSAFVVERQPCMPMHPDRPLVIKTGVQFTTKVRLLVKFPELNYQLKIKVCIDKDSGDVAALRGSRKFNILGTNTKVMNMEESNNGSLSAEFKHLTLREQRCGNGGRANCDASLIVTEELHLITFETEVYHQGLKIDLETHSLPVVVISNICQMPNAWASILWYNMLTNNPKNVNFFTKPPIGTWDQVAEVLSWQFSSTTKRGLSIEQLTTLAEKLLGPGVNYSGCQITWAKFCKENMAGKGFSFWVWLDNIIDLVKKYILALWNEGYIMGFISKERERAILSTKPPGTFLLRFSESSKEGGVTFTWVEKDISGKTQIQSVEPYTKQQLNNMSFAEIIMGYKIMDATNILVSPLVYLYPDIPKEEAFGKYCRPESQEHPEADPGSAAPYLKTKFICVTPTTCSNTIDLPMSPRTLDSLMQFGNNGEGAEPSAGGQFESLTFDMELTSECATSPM
Method: Inhibition of STAT3 in BT20 Breast Tumor Cells. General procedure: 35 mm petri dishes were plated with 300,000 BT20 cells in 2 mL RPMI1640 media containing 10% FBS, […], streptomycin, and glutamine. Prodrugs were dissolved in DMSO and were added to the cells with fresh media at varying concentrations. After 2 h the cells were washed with ice cold phosphate buffered saline. Washed cells were treated with lysis buffer (50 mM Hepes, pH 7.4, 150 mM NaCl, 1.5 mM MgCl2, 1 mM EGTA, 100 mM NaF, 10 mM sodium pyrophosphate, 10% glycerol, 1% Triton X-100, 1 mM PMSF, 1 mM Na3VO4, 10 μg/mL leupeptin and 10 μg/mL aprotinin). Cell-free detergent extracts were centrifuged at 15,000 rpm in a microcentriguge for 30 min at 4° C. and the protein concentrations of the supernatants determined. Aliquots containing 12 μg of protein were separated on 8% SDS-PAGE and were transferred to PVDF filters. The filters were blocked with 5% bovine serum albumin and were probed with pStat3^Y705 antibody followed by secondary antibody, whose signal was detected with an enhanced chemiluminescence kit (ECL, Amersham, Chicago, Ill.). Filters were stripped with stripping buffer (62.5 mM Tris, pH 6.8, 2% SDS, and 0.1 M 2-mercaptoethanol) at 50° C. for 30 min. Filters were then probed with total Stat3 antibody and visualized with chemiluminescence as above.
Because DMSO is toxic, other formulations were evaluated for potential use in animal models. The compound of Example 1 was dissolved in EtOH, 20% (w/v) Trappsol (hydroxypropyl β-cyclodextran, pharmaceutical grade), or a liposomal formulation to a concentration of 5 mM. These formulations were given to cells at 0.1, 0.5, and 5 μM concentrations. At two hours, cells were lysed and pSTAT3 levels were determined by Western Blot (FIG. 3). Different formulations have little effect on inhibition of STAT3. The compound of Example 1 was dissolved in DMSO, EtOH, Trappsol, or as a 10 mol % mixture in dimyristoylphosphatidyl choline and applied to BT20 cell in culture. After two hours, cells were lysed and pSTAT3 levels determined by Western blot. To prepare liposomes a solution of 1.0 mg of the compound of Example 1, 7.2 mg of DMPC, 0.41 mg of Tween 20 in 1.0 mL of tert-butanol was lyophilized. A control lipid formulation of 7.2 mg of DMPC and 0.41 mg of Tween 20 in 1.0 mL of tert-butanol was lyophilized. These samples were mixed with 236 μL of H2O and were vortexed and sonicated for 5 min.
The compounds are selective for STAT3 over STAT1 in BT20 breast tumor cells. BT20 cells prepared as above and were treated with 5 μM of the compound of Example 1 for two hours then were treated with 25 ng/mL of interferon γ (IFNγ). […] (FIG. 4, bottom panel).
Time course of inhibition of STAT3 phosphorylation in BT20 cells. BT20 cells were plated as above and treated with the compounds from Examples 1 and 6 and western blots were performed at varying time intervals.

STAT5 = assay: EGF-stimulated STAT5 phosphorylation in MDA-MB-468 cells; format: cell-based, human; settings: 1.5 hr prodrug, then EGF 100 ng/mL 30 min
Method: (§2) Effect of prodrug on the phosphorylation of STAT3, STAT5 and Akt in response to Epidermal Growth Factor stimulation. MDA-MB-468 cells were prepared as above. Prodrugs were prepared as 10 mM stock solutions in DMSO and aliquots were added to the culture media to give the correct final concentrations. After 1.5 hr EGF was added at 100 ng/mL. After 30 minutes cells were collected and lysed and proteins were separated by PAGE and transferred to three PVDF filters as above. The first filter was blocked with 5% bovine serum albumin and probed for total and phosphoStat3 as above. The second filter was probed for phosphoSer473Akt and total Akt using appropriate antibodies and similar detection procedures to those used for STAT3. The third filter was probed for phosphoTyr699 Stat5 and total STAT5 using appropriate antibodies and similar detection procedures to those used for STAT3.

Akt = assay: EGF-stimulated Akt Ser473 phosphorylation in MDA-MB-468 cells; format: cell-based, human; settings: 1.5 hr prodrug, then EGF 100 ng/mL 30 min
Method: as §2

[5] = tested on: Focal Adhesion Kinase (FAK); assay: Phosphorylation of Focal Adhesion Kinase Tyr861 in MDA-MB-468 cells; format: cell-based, human; settings: 2 hr treatment
Source text: Effect of Prodrug on the phosphorylation of Focal Adhesion Kinase (FAK) in MDA-MB-468 breast tumor cells. MDA-MB-468 cells express constitutive phosphorylation of Tyr861 of FAK (Laird, A. et al., Src Family Kinase Activity is Required For Signal Tranducer and Activator of Transcription 3 and Focal Adhesion Kinase Phosphorylation and Vascular Endothelial Growth Factor Signaling In Vivo and For Anchorage-Dependent and Independent Growth Of Human Tumor Cells, Mol Cancer Ther, 2, 461-9(2003). a unique substrate of Src upon recruitment via its SH2 domain (Calalb, M. B., et al, S. K. Focal adhesion kinase tyrosine-861 is a major site of phosphorylation by Src. Biochem Biophys Res Commun 1996, 228, 662-8 (1996.) To test for cross reactivity to the Src SH2 domain, MDA-MB-468 cell extracts were probed for phosphorylation of Tyr861 of FAK.

STAT3 [6] = biological target: T1, STAT3; assay: Inhibition of Stat3 tyrosine705 phosphorylation in MDA-MB-468 cells; format: cell-based; design: host or cells: MDA-MB-468 breast tumor cells; settings: 2 h
Method: Inhibition of Stat3 tyrosine705 phosphorylation in MDA-MB-468 cells. MDA-MB-468 breast tumor cells (0.4×10^6) were plated onto 35 mm culture dishes and were allowed to grow overnight. Prodrugs were prepared as 10 mM stock solutions in DMSO and aliquots were added to the culture media to give the correct final concentrations. After 2 h the cells were washed with ice cold phosphate buffered saline. Washed cells were treated with lysis buffer (50 mM Hepes, pH 7.4, 150 mM NaCl, 1.5 mM MgCl2, 1 mM EGTA, 100 mM NaF, 10 mM sodium pyrophosphate, 10% glycerol, 1% Triton X-100, 1 mM PMSF, 1 mM Na3VO4, 10 μg/mL leupeptin and 10 μg/mL aprotinin). Cell-free detergent extracts were centrifuged at 15,000 rpm in a microcentriguge for 30 min at 4° C. and the protein concentrations of the supernatants determined. Aliquots containing 12 μg of protein were separated on 8% SDS-PAGE and were transferred to PVDF filters. The filters were blocked with 5% bovine serum albumin and were probed with pStat3^Y705 antibody followed by secondary antibody, whose signal was detected with an enhanced chemiluminescence kit (ECL, Amersham, Chicago, Ill.). Filters were stripped with stripping buffer (62.5 mM Tris, pH 6.8, 2% SDS, and 0.1 M 2-mercaptoethanol) at 50° C. for 30 min. Filters were then probed with total Stat3 antibody and visualized with chemiluminescence as above.

STAT3 [7] = biological target: T1, STAT3; assay: EGF-stimulated STAT3 phosphorylation in MDA-MB-468 cells; format: cell-based; design: host or cells: MDA-MB-468 breast tumor cells; settings: 1.5 hr prodrug, then EGF 100 ng/mL 30 min
Method: as §2

STAT1 = biological target: T2, STAT1 (Homo sapiens, UniProt P42224); assay: IFNγ-stimulated STAT1 phosphorylation in MDA-MB-468 cells; format: cell-based; design: host or cells: MDA-MB-468 breast tumor cells
T2 sequence (P42224 1-750): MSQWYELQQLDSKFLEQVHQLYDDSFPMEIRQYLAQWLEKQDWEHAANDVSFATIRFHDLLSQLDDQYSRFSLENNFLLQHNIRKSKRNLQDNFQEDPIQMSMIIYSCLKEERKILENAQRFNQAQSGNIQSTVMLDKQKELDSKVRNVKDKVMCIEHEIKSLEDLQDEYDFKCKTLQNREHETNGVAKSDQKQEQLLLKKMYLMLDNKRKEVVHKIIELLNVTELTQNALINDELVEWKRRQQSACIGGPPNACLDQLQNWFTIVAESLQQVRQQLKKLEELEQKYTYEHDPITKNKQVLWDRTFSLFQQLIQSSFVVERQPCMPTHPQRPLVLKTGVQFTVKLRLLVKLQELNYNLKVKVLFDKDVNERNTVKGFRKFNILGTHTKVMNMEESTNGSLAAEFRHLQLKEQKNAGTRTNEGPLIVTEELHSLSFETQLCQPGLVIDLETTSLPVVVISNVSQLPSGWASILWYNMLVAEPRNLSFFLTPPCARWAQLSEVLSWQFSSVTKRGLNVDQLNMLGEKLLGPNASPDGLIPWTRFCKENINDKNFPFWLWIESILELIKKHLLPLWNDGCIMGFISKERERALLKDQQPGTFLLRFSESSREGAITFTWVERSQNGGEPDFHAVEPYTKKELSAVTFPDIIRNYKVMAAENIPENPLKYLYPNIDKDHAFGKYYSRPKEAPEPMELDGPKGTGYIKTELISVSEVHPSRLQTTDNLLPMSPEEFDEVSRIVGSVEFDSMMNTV
Method: Effect of Prodrug on the phosphorylation of STAT1 in MDA-MB-468 breast tumor cells. MDA-MB-468 cells were prepared as above. Prodrugs were prepared as 10 mM stock solutions in DMSO and aliquots were added to the culture media to give the correct final concentrations. After 1.5 hr interferonγ was added at 25 ng/mL. After 30 minutes cells were collected and lysed and proteins were separated by PAGE and transferred to PVDF filters as above. Filters were probed for phosphoTyr701 Stat 1 and total Stat1 using appropriate antibodies and similar detection procedures to those used for Stat3.

| concentration as low as which partial inhibition of STAT3 phosphorylation was seen (STAT3 [6]) [nM] | concentration at which complete inhibition of STAT3 phosphorylation occurred (STAT3 [6]) [nM] | EGF-induced increase in Stat3 phosphorylation (STAT3 [7]) | inhibition of Stat1 phosphorylation compared with Stat3 phosphorylation (STAT1; 1.5 hr prodrug, then interferonγ 25 ng/mL 30 min) | fold less potent at inhibiting STAT1 than STAT3 (STAT1; MDA-MB-468 cells) | SMILES | colony formation in soft agar [1] | colony formation in soft agar, four breast tumor models [2] | invasion through the artificial basement membrane [3] | effectiveness of phosphate (X=O) relative to difluoromethyl phosphonate Example 1 (X=CF2) (STAT3 [4]) | Stat5 phosphorylation after EGF (STAT5) | Akt Ser473 phosphorylation after EGF (Akt) | phosphorylation of FAK Tyr861 [5] | inhibition of Tyr705 phosphorylation of Stat3 (potency in words) (STAT3 [6]; prodrug in DMSO) |
| --- | --- | --- | --- | --- | --- | --- | --- | --- | --- | --- | --- | --- | --- |
| – | – | – | – | – | C/C(=C\C(=O)N[C@H]1CCc2cccc3c2N(C1=O)[C@H](C(=O)N[C@H](C)CCC(N)=O)C3)c1ccc(C(F)(F)P(=O)(Oc2ccccc2)Oc2ccccc2)cc1 [Example 8, (E)-3-[4-[(Diphenoxyphosphinyl)difluoromethyl]phenyl]-but-2-enoyl-Haic-(R)-4-aminopentamide] | inhibition of colony formation | inhibition | inhibited invasion | as effective as | – | – | – | – |
| 10 | 500 | effective at inhibiting | less effective | about 10 fold | CCCC[C@H](NC(=O)/C=C(\C)c1ccc(C(F)(F)P(=O)(OCOC(=O)C(C)(C)C)OCOC(=O)C(C)(C)C)cc1)C(=O)N1C[C@H]2CC2[C@H]1C(=O)N[C@H](C)CCC(N)=O (stereo partly drawn) [Example 18, (2E)-3-[4-[[bis[(2,2-dimethyl-1-oxopropoxy)methoxy]phosphinyl]difluoromethyl]phenyl]-but-2-enoyl-norleucinyl-(2S,3R,4S)-methanoprolinyl-(R)-4-aminopentamide] | – | – | – | – | no effect | no effect | no reduction; also recorded: do not inhibit | very potent inhibitors; also recorded: inhibit phosphorylation of STAT3 |

From US8841257B2, “Inhibitors of STAT3 and uses thereof” (Board of Regents, The University of Texas System, priority 2009, dated 2014)
